The values that follow come from US11447511B2, “Dioxolane analogues of uridine for the treatment of cancer” (MEDIVIR AB, priority 2014, dated 2022).

The nature of series [1]: Cell cytotoxicity assay, HUH7. The following applies: human; Huh7 cells, 5 days at 37° C., XTT dye. Type of series: cell-based. As to the method: (§1) Cells were seeded 24 hours prior to compound addition. Each test compound (serially diluted from 100 μM) was added to Huh7 (1.5×10^4 cells/well) or HepG2 (1.5×10^4 cells/well), and allowed to incubate for 5 days at 37° C. A medium only control was used to determine the minimum absorbance value and an untreated cell value. At the end of the growth period, XTT dye from Polysciences Europe GmbH was added to each well. The absorbance at 450 nm with a reference wavelength of 600 nm was read with a Sunrise (Tecan) using the medium only control wells as blanks. The 50% inhibition value (CC50) was determined by comparing the degree of inhibition (compared to cell control) plotted against compound concentration. Results from the dilution series were fitted to a sigmoidal dose-response curve.
(§2) Compounds of the invention were evaluated in these assays to assess the stability in human intestinal S9 fraction (HIS9) and human liver S9 fraction (HLS9), and for Cell Cytotoxicity in HUH7, HEP3B and HEPG2 cells.

A short description of series [2]: Cell cytotoxicity assay, HEP3B. Type of series: cell-based. The following applies: human, HEP3B cells. As to the method:
as §1, §2

The nature of series [3]: Cell cytotoxicity assay, HEPG2. The following applies: human; HepG2 cells, 5 days at 37° C., XTT dye. The series is classed as cell-based. As to the method: as §1, §2
The nature of series [4]: Stability in human liver S9 fraction (HLS9). The series is classed as in vitro ADME. The following applies: human liver S9 0.4 mg protein/mL, 5 μM test compound, 37° C.; for microsomal CLint at 5 μM: liver S9 fraction, pH 7.4. As to the method:
(§3) Stability in Human Intestinal S9 Fraction (HIS9) and in Human Liver S9 Fraction (HLS9),
(§4) Stock solutions of each test compound (10 mM) were prepared in DMSO and stored at −20° C. Prior to the start of the experiment, the test compounds were diluted to 500 μM in 50% acetonitrile in water. The reaction mixture was prepared in a total volume of 250 μL containing 5 mM MgC2, 1 mM NADPH and 5 μM test compound in 50 mM potassium phosphate buffer (pH 7.4). The reaction was initiated by addition of human liver or intestinal S9 fraction with a final concentration of 0.4 mg protein/mL (Xeno Tech). The reaction mixture was incubated on an orbital shaker at 37° C. At the desired time points (0, 10, 30 and 60 minutes) aliquots of 50 μL were taken and the reaction was stopped by mixing with 150 μL acetonitrile containing internal standard. Standard solutions of each test compound were prepared from the 500 μM solution by diluting the solution to a final concentration of 5 μM in boiled human S9 (0.4 mg protein/mL), 5 mM MgCl2 and 50 mM potassium phosphate buffer (pH 7.4). The standards and samples were kept on ice for 30 min then centrifuged at 3 000 g for 20 minutes at 10° C., there after 10 μL of supernatant was mixed with 200 μL 50% acetonitrile in water. 0.5 μM of each test compound in 50% acetonitrile in water was injected into the LC/MS-MS to determine the daughter ion, declustring potential (DP), collision energy (CE) and collision cell exit potential (CXP) in order to develop a LC/MS-MS method. The compounds were separated using a C18 column with a QTRAP5500 system. The mobile phase consisted of solvent A (98% water, 2% acetonitrile, 0.1% acetic acid or 10 mM ammonium acetate) and solvent B (80% acetonitrile, 20% water, 0.1% acetic acid or 10 mM ammonium acetate). Elution of the compounds was performed by using a gradient of solvent B from 0% to 100%. 5 μL of standard points and samples were injected for analysis with QTRAP5500.
(§5) The amount of parent compound was determined on the basis of the peak area for each time point compared to standard which was set to 5 μM. Intrinsic clearance (CLint) and half-life (t1/2) were determined from the disappearance curves of the test compound using Excel software.

The nature of series [5]: Stability in human intestinal S9 fraction (HIS9). Type of series: in vitro ADME. The following applies: human intestinal S9 0.4 mg protein/mL, 5 μM test compound, 37° C.; for microsomal CLint at 5 μM: intestinal S9 fraction, pH 7.4. How it is done:
as §3, §4, §5

The subject of the next series is Huh7. Nature of the series: Cell cytotoxicity assay, HUH7. Type of series: cell-based. The following applies: Huh7 cells, 5 days at 37° C., XTT dye. As to the method: as §1, §2
The next series concerns HEP3B. Description: Cell cytotoxicity assay, HEP3B. The following applies: HEP3B cells. Type of series: cell-based. How it is done: as §1, §2
Another series relates to HepG2. Nature of the series: Cell cytotoxicity assay, HEPG2. Type of series: cell-based. The following applies: HepG2 cells, 5 days at 37° C., XTT dye. As to the method: as §1, §2
In general terms: Formazan colour is commonly taken as a measure of viable cells.

For the next series, the system named is HIV. The following applies: relative to 3TC; cited from earlier work.
The next series deals with HBV in Hep G2.2.15 cells. The following applies: cited from earlier work.

As usually defined, the CC50 is the concentration that lowers cell viability or growth by half. In general, microsomal CLint refers to the rate of metabolic loss divided by the concentration.

SMILES strings stand for the structures.

With `COC(=O)[C@H](C)NP(=O)(OC[C@H]1OC[C@@H](n2ccc(N)nc2=O)O1)Oc1ccc(Br)cc1` (single isomer, unassigned) [27 dia-2], the half-maximal cytotoxic concentration (CC50) at 5 days was 1.02 µM in series [1], 0.348 µM in series [2] and 0.223 µM in series [3]. The same compound yielded a microsomal CLint at 5 μM in series [4] of 57 µL/min/mg. Further, in series [5], the “CLint Intestinal S9” value turned out to be 6 µL/min/mg.

Take `COC(=O)[C@H](Cc1ccccc1)NP(=O)(OC[C@H]1OC[C@@H](n2ccc(N)nc2=O)O1)Oc1ccccc1` (single isomer, unassigned) [28 dia-2]: the CC50 at 5 days stood at 15.6 µM in [1] and 2.72 µM in series [3]. For the same compound, the results for the microsomal CLint at 5 μM in series [4] and in series [5] were 20 µL/min/mg and 40 µL/min/mg, respectively.

Regarding `CCC[C@H](C)OC(=O)[C@H](C)NP(=O)(OC[C@H]1OC[C@@H](n2cc(F)c(N)nc2=O)O1)Oc1cccc(C2CC2)c1` (single isomer, unassigned) [29 dia-2], the cytotoxic concentration (CC50) at 5 days in series [1] stood at 0.495 µM; in [2] it was 0.075 µM. Besides, the intrinsic clearance (microsomal CLint) at 5 μM turned out to be 36 µL/min/mg in series [4] and 18 µL/min/mg in series [5].

Consider `COC(=O)[C@H](C)NP(=O)(OC[C@H]1OC[C@@H](n2ccc(N)nc2=O)O1)Oc1ccc(C2CC2)cc1` (single isomer, unassigned) [34 dia-2], for which the half-maximal cytotoxic concentration (CC50) at 5 days in [1] came out at 0.524 µM; in series [2], 0.21 µM; in series [3], 0.236 µM. This compound also yielded a microsomal CLint at 5 μM in series [4] of 64 µL/min/mg. Further, the “CLint Intestinal S9” value in [5] worked out at 6 µL/min/mg.

Regarding `CC(C)OC(=O)[C@H](C)NP(=O)(OC[C@H]1OC[C@@H](n2ccc(N)nc2=O)O1)Oc1ccccc1` (single isomer, unassigned) [Example 2], the figures for the 50% cytotoxic concentration (CC50) at 5 days in series [1] and in series [3] were 1.75 µM and 0.248 µM, respectively. This compound also yielded an intrinsic metabolic clearance (microsomal CLint) at 5 μM in series [4] of 13 µL/min/mg. In series [5], the “CLint Intestinal S9” value was 6 µL/min/mg.

Regarding `CC(C)OC(=O)[C@H](C)NP(=O)(OC[C@H]1OC[C@@H](n2ccc(N)nc2=O)O1)Oc1ccccc1` (single isomer, unassigned) [Example 3], the CC50 at 5 days in series [1] was determined as 3.28 µM; in series [3], 0.371 µM. Also, the microsomal CLint at 5 μM in [4] stood at 8 µL/min/mg. In addition, the “CLint Intestinal S9” value in [5] worked out at 6 µL/min/mg.

For `CCC[C@H](C)OC(=O)[C@H](C)NP(=O)(OC[C@H]1OC[C@@H](n2ccc(N)nc2=O)O1)Oc1ccccc1` (single isomer, unassigned; dia-2) [20 dia-2], the results for the cytotoxic concentration (CC50) with Huh7, with HEP3B and in the series with HepG2 were 0.073 µM, 0.078 µM and 0.06 µM, respectively. Moreover, in series [4], the “CLint Liver S9” value amounted to 25 µL/min/mg. For the same compound, the “CLint Intestinal S9” value in series [5] was 6 µL/min/mg.

As to `COC(=O)[C@H](C)NP(=O)(OC[C@H]1OC[C@@H](n2ccc(N)nc2=O)O1)Oc1ccccc1` (single isomer, unassigned; dia-2) [26 dia-2], the values for the CC50 with Huh7, with HEP3B and in the series on HepG2 were 4.73 µM, 4.02 µM and 1.06 µM, respectively. Moreover, in [4], the “CLint Liver S9” value came out at 10 µL/min/mg. The “CLint Intestinal S9” value in series [5] amounted to 6 µL/min/mg.

For the compound `COC(=O)C(C)NP(=O)(OC[C@@H]1O[C@H](n2ccc(N)nc2=O)CS1)Oc1ccccc1` (stereo partly drawn) [CF 1109], the “fold less active against HIV than parent nucleoside 3TC” value in the series with HIV is roughly 250 fold. For the same compound, the “effectiveness against HBV compared with parent nucleoside 3TC” value in the series on HBV in Hep G2.2.15 cells is listed as “virtually equally effective”.

In the case of `CC(C)OC(=O)[C@H](C)NP(=O)(OC[C@H]1OC[C@@H](n2ccc(=O)[nH]c2=O)O1)Oc1ccccc1` (stereo partly drawn) [Example 1, (2S)-isopropyl 2-(((((2S,4S)-4-(2,4-dioxo-3,4-dihydropyrimidin-1(2H)-yl)-1,3-dioxolan-2-yl)methoxy)(phenoxy)phosphoryl)amino)propanoate], the CC50 at 5 days in series [1] and in series [3] was greater than 100 µM in each case. This compound also returned a microsomal CLint at 5 μM in series [4] of 12 µL/min/mg. The “CLint Intestinal S9” value in [5] came to 6 µL/min/mg.

As for `Nc1ccn([C@@H]2CO[C@H](CO)O2)c(=O)n1` [Troxacitabine, 4-amino-1-((2S,4S)-2-(hydroxymethyl)-1,3-dioxolan-4-yl)pyrimidin-2(1H)-one, reference compound], the half-maximal cytotoxic concentration (CC50) at 5 days in [1] turned out to be 0.646 µM; in series [2], 0.279 µM; in series [3], 0.218 µM.
